From ChEMBL document CHEMBL5550177, “Design and synthesis of matrine derivatives for anti myocardial ischemia-reperfusion injury by promoting angiogenesis” (Bioorg Med Chem, 2024)
Activity calls are given as the source filed them. No cut-off for these calls is given here.

Tests used:
H9c2 [1] = assay: Cytotoxicity against rat H9c2 cells assessed as cell viability upto 20 uM incubated for 24 hrs by CCK-8 assay; assay type: toxicity, cell-based; conditions: h9c2, 24 h
H9c2 [2] = assay: Protection against H/R induced damage in rat H9c2 cells assessed as increase in cell viability at 1 to 20 umol/L preincubated for 2 hrs followed by hypoxic reoxygenation induction by CCK-8 assay; assay type: functional, cell-based; conditions: dose 1-20 µmol/L
Rattus norvegicus [3] = assay: Cardioprotective activity in iv dosed myocardial ischemia/reperfusion induced rat injury model assessed as reduction in serum LDH level pretreated with compound followed by MI/R induction measured after 30 mins; assay type: functional, organism-based; conditions: dose 5-20 mg/kg
H9c2 [4] = assay: Cardioprotective activity against H/R induced damage in rat H9c2 cells assessed as upregulation of CREB3L4 gene expression at 5 to 20 uM by RT-qPCR assay; assay type: functional, cell-based; conditions: dose 5-20 µM
Rattus norvegicus [5] = assay: Antioxidant activity in myocardial ischemia/reperfusion induced rat injury model assessed as decrease in MDA level at 5 to 20 mg/kg, iv pretreated with compound followed by MI/R induction measured after 30 mins; assay type: functional, organism-based; conditions: dose 5-20 mg/kg
Rattus norvegicus [6] = assay: Cardioprotective activity in myocardial ischemia/reperfusion induced rat injury model assessed as improvement in cardiac injury at 5 to 20 mg/kg, iv pretreated with compound followed by MI/R induction measured after 30 mins by H and E staining based light microscopic analysis; assay type: functional, organism-based; conditions: dose 5-20 mg/kg
H9c2 [7] = assay: Antioxidant activity against H/R induced damage in rat H9c2 cells assessed as reduction in MDA level at 5 to 20 uM preincubated with compound followed by hypoxic reoxygenation induction; assay type: functional, cell-based; conditions: dose 5-20 µM
H9c2 [8] = assay: Protection against H/R induced damage in rat H9c2 cells assessed as reduction in LDH level at 20 uM preincubated with compound followed by hypoxic reoxygenation induction; assay type: functional, cell-based
Rattus norvegicus [9] = assay: Cardioprotective activity in myocardial ischemia/reperfusion induced rat injury model assessed as improvement in damaged left ventricular diastolic pressure at 5 to 20 mg/kg, iv measured after 30 mins; assay type: functional, organism-based; conditions: dose 5-20 mg/kg
Rattus norvegicus [10] = assay: Cardioprotective activity in myocardial ischemia/reperfusion induced rat injury model assessed as reduction in myocardial fiber disruption at 5 to 20 mg/kg, iv pretreated with compound followed by MI/R induction measured after 30 mins by H and E staining based light microscopic analysis; assay type: functional, organism-based; conditions: dose 5-20 mg/kg
[11] = Drug accumulation in rat heart at 5 to 20 mg/kg, iv measured after 2 hrs by HPLC analysis; assay type: ADME, organism-based; conditions: in vivo, dose 5-20 mg/kg
Rattus norvegicus [12] = assay: Cardioprotective activity in iv dosed myocardial ischemia/reperfusion induced rat injury model assessed as reduction in area of infraction pretreated with compound followed by MI/R induction measured after 30 mins by TTC staining based assay; assay type: functional, organism-based; conditions: dose 5-20 mg/kg
H9c2 [13] = assay: Cardioprotective activity against MI/R induced rat H9c2 cells assessed as reduction in PP2B protein expression at 5 to 20 uM pretreated with compound followed by MI/R induction by Western blotting assay; assay type: functional, cell-based; conditions: dose 5-20 µM
H9c2 [14] = assay: Cardioprotective activity against MI/R induced rat H9c2 cells assessed as upregulation of ADCY5 protein expression at 5 to 20 uM pretreated with compound followed by MI/R induction by Western blotting assay; assay type: functional, cell-based; conditions: dose 5-20 µM
[15] = Toxicity in rat assessed as change in organ morphology at 20 to 100 mg/kg, iv measured after 14 days; assay type: organism-based; conditions: in vivo, 336 h, dose 20-100 mg/kg, time 14 day
H9c2 [16] = assay: Antioxidant activity against H/R induced damage in rat H9c2 cells assessed as increase in SOD level preincubated with compound followed by hypoxic reoxygenation induction; assay type: functional, cell-based; conditions: dose 5-20 µM
H9c2 [17] = assay: Cardioprotective activity against H/R induced damage in rat H9c2 cells assessed as reduction in BNP gene expression by RT-qPCR assay; assay type: functional, cell-based; conditions: dose 5-20 µM
Rattus norvegicus [18] = assay: Cardioprotective activity in myocardial ischemia/reperfusion induced rat injury model assessed as improvement in damaged ventricular systolic function at 5 to 20 mg/kg, iv measured after 30 mins; assay type: functional, organism-based; conditions: dose 5-20 mg/kg
H9c2 [19] = assay: Protection against H/R induced damage in rat H9c2 cells assessed as increase in cell viability at 1 to 20 umol/L preincubated for 2 hrs followed by hypoxic reoxygenation induction by CCK-8 assay (reference value: 45.1 +/- 2.1%); assay type: functional; conditions: dose 1-20 µmol/L; at 1 to 20 µM
Rattus norvegicus [20] = assay: Cardioprotective activity in myocardial ischemia/reperfusion induced rat injury model assessed as improvement in damaged left ventricular systolic pressure at 5 to 20 mg/kg, iv measured after 30 mins; assay type: functional, organism-based; conditions: dose 5-20 mg/kg
H9c2 [21] = assay: Cardioprotective activity against MI/R induced rat H9c2 cells assessed as upregulation of CREB3L4 protein expression at 5 to 20 uM pretreated with compound followed by MI/R induction by Western blotting assay; assay type: functional, cell-based; conditions: dose 5-20 µM
H9c2 [22] = assay: Protection against H/R induced damage in rat H9c2 cells assessed as reduction in CK-MB level at 20 uM preincubated with compound followed by hypoxic reoxygenation induction; assay type: functional, cell-based
Rattus norvegicus [23] = assay: Cardioprotective activity in myocardial ischemia/reperfusion induced rat injury model assessed as prevention of heart rate decrease at 5 to 20 mg/kg, iv measured after 30 mins; assay type: functional, organism-based; conditions: dose 5-20 mg/kg
Rattus norvegicus [24] = assay: Cardioprotective activity in myocardial ischemia/reperfusion induced rat injury model assessed as prevention of average femoral artery blood pressure decrease at 5 to 20 mg/kg, iv measured after 30 mins; assay type: functional, organism-based; conditions: dose 5-20 mg/kg
H9c2 [25] = assay: Cardioprotective activity against MI/R induced rat H9c2 cells assessed as upregulation of VEGFA protein expression at 5 to 20 uM pretreated with compound followed by MI/R induction by Western blotting assay; assay type: functional, cell-based; conditions: dose 5-20 µM
H9c2 [26] = assay: Cardioprotective activity against H/R induced damage in rat H9c2 cells assessed as reduction in PP2B gene expression by RT-qPCR assay; assay type: functional, cell-based; conditions: dose 5-20 µM
H9c2 [27] = assay: Protection against H/R induced necrosis in rat H9c2 cells assessed as reduction in myocardial cell death at 5 to 20 uM preincubated with compound followed by hypoxic reoxygenation induction by Hoechst 33258/PI double staining based fluorescence microscopic analysis; assay type: functional; conditions: dose 5-20 µM
Chorioallantoic membrane = assay: Angiogenesis activity in chicken embryo chorioallantoic membrane assessed as increase in total number of blood vessels incubated for 132 hrs by CAM assay; assay type: functional, tissue-based; conditions: Gallus gallus
Rattus norvegicus [28] = assay: Antioxidant activity in myocardial ischemia/reperfusion induced rat injury model assessed as increase in SOD level at 5 to 20 mg/kg, iv pretreated with compound followed by MI/R induction measured after 30 mins; assay type: functional, organism-based; conditions: dose 5-20 mg/kg
H9c2 [29] = assay: Protection against H/R induced necrosis in rat H9c2 cells assessed as reduction in myocardial cell death preincubated with compound followed by hypoxic reoxygenation induction by Hoechst 33258/PI double staining based fluorescence microscopic analysis; assay type: functional; conditions: dose 5-20 µM
[30] = Toxicity in rat assessed as change in organ color at 20 to 100 mg/kg, iv measured after 14 days; assay type: organism-based; conditions: in vivo, 336 h, dose 20-100 mg/kg, time 14 day
H9c2 [31] = assay: Cardioprotective activity against H/R induced damage in rat H9c2 cells assessed as upregulation of ADCY5 gene expression at 5 to 20 uM by RT-qPCR assay; assay type: functional, cell-based; conditions: dose 5-20 µM
Rattus norvegicus [32] = assay: Cardioprotective activity in iv dosed myocardial ischemia/reperfusion induced rat injury model assessed as reduction in serum CK-MB level pretreated with compound followed by MI/R induction measured after 30 mins; assay type: functional, organism-based; conditions: dose 5-20 mg/kg
[33] = Toxicity in rat assessed as change in organ index at 20 to 100 mg/kg, iv measured after 14 days; assay type: organism-based; conditions: in vivo, 336 h, dose 20-100 mg/kg, time 14 day
H9c2 [34] = assay: Cardioprotective activity against MI/R induced rat H9c2 cells assessed as reduction in BNP protein expression at 5 to 20 uM pretreated with compound followed by MI/R induction by Western blotting assay; assay type: functional, cell-based; conditions: dose 5-20 µM
H9c2 [35] = assay: Cardioprotective activity against H/R induced damage in rat H9c2 cells assessed as upregulation of VEGFA gene expression at 5 to 20 uM by RT-qPCR assay; assay type: functional, cell-based; conditions: dose 5-20 µM

O=C(CCC[C@@H]1[C@H]2CCCN3CCC[C@@H](CN1Cc1ccccc1)[C@@H]23)NCCc1ccc(O)cc1
Activity (H9c2 [1]): Non-Toxic

O=C(CCC[C@@H]1[C@H]2CCCN3CCC[C@@H](CN1Cc1ccccc1)[C@@H]23)NC1CCCCC1
Activity (H9c2 [1]): Non-Toxic

CCOCCNC(=O)CCC[C@@H]1[C@H]2CCCN3CCC[C@@H](CN1Cc1ccccc1)[C@@H]23
Activity (H9c2 [1]): Non-Toxic

O=C(CCC[C@@H]1[C@H]2CCCN3CCC[C@@H](CN1Cc1ccccc1)[C@@H]23)NC1CCC1
Activity (H9c2 [1]): Non-Toxic

O=C(CCC[C@@H]1[C@H]2CCCN3CCC[C@@H](CN1Cc1ccccc1)[C@@H]23)NCCOCCO
Activity (H9c2 [2]): Active

O=C(CCC[C@@H]1[C@H]2CCCN3CCC[C@@H](CN1Cc1ccccc1)[C@@H]23)NCCOCCOC(=O)c1sccc1Cl
Activity (Rattus norvegicus [3]): Dose-Dependent Effect | Activity (H9c2 [4]): Active | Activity (Rattus norvegicus [5]): Active | Activity (Rattus norvegicus [6]): Active | Activity (H9c2 [7]): Active | Activity (H9c2 [8]): Active | Activity (Rattus norvegicus [9]): Active | Activity (Rattus norvegicus [10]): Active | Drug uptake [11]: Active | Activity (Rattus norvegicus [12]): Dose-Dependent Effect | Activity (H9c2 [13]): Active | Activity (H9c2 [14]): Active | Activity [15]: Non-Toxic | Activity (H9c2 [16]): Dose-Dependent Effect | Activity (H9c2 [17]): Dose-Dependent Effect | Activity (Rattus norvegicus [18]): Active | Activity (H9c2 [19]): 93.2% | Activity (Rattus norvegicus [20]): Active | Activity (H9c2 [21]): Active | Activity (H9c2 [22]): Active | Activity (Rattus norvegicus [23]): Active | Activity (Rattus norvegicus [24]): Active | Activity (H9c2 [25]): Active | Activity (H9c2 [26]): Dose-Dependent Effect | Activity (H9c2 [27]): Active | Activity (Chorioallantoic membrane): Active | Activity (Rattus norvegicus [28]): Active | Activity (H9c2 [29]): Dose-Dependent Effect | Activity [30]: Non-Toxic | Activity (H9c2 [31]): Active | Activity (Rattus norvegicus [32]): Dose-Dependent Effect | Activity [33]: Non-Toxic | Activity (H9c2 [34]): Active | Activity (H9c2 [35]): Active

CC(C)NCC(O)COc1ccc(CC(N)=O)cc1 (configuration not stated)
Activity (Rattus norvegicus [6]): Active | Activity (Rattus norvegicus [10]): Active

O=C(CCC[C@@H]1[C@H]2CCCN3CCC[C@@H](CN1Cc1ccccc1)[C@@H]23)NC1CC1
Activity (H9c2 [1]): Non-Toxic

O=C(CCC[C@@H]1[C@H]2CCCN3CCC[C@@H](CN1Cc1ccccc1)[C@@H]23)NCCc1c[nH]c2ccccc12
Activity (H9c2 [1]): Non-Toxic

O=C(CCC[C@@H]1[C@H]2CCCN3CCC[C@@H](CN1Cc1ccccc1)[C@@H]23)Nc1cccnn1
Activity (H9c2 [1]): Non-Toxic

O=C(CCC[C@@H]1[C@H]2CCCN3CCC[C@@H](CN1Cc1ccccc1)[C@@H]23)NCCC1=CC=CCC1=S
Activity (H9c2 [1]): Non-Toxic

O=C(CCC[C@@H]1[C@H]2CCCN3CCC[C@@H](CN1Cc1ccccc1)[C@@H]23)NC1CCCC1
Activity (H9c2 [1]): Non-Toxic

O=C1CCC[C@@H]2[C@H]3CCCN4CCC[C@@H](CN12)[C@@H]34 [MATRINE]
Activity (H9c2 [1]): Non-Toxic
